What was measured:
Assay in all cases: relative viability (nuclei count vs DMSO), 5 days (fraction); higher = more cells survive
Tozasertib + Vorinostat = compound: Cc1cc(Nc2cc(N3CCN(C)CC3)nc(Sc3ccc(NC(=O)C4CC4)cc3)n2)n[nH]1 [Tozasertib] + O=C(CCCCCCC(=O)Nc1ccccc1)NO [Vorinostat] (partner 1 µM)
Procedure, shortened: (§1)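 After 5 days of treatment, lung cancer cells in 1536-well plates were fixed and stained in a single step (final 0.05% Triton X-100, 1% formaldehyde, 1 ug/ml Hoechst) and their nuclei counted on 4× images. Treatment had been applied by pin tool the day after seeding as one drug alone or as a fixed anchor-drug dose with five library-drug doses (not always all listed) in √10 steps. Relative viability is the nuclei count of treated wells divided by that of vehicle wells, and values are medians of duplicate plates.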

Tozasertib + OSI-027 = compound: Cc1cc(Nc2cc(N3CCN(C)CC3)nc(Sc3ccc(NC(=O)C4CC4)cc3)n2)n[nH]1 [Tozasertib] + COc1cccc2cc(-c3nc([C@H]4CC[C@H](C(=O)O)CC4)n4ncnc(N)c34)[nH]c12 [OSI-027] (partner 0.5 µM)
Procedure, shortened: as §1

Tozasertib + Foretinib = compound: Cc1cc(Nc2cc(N3CCN(C)CC3)nc(Sc3ccc(NC(=O)C4CC4)cc3)n2)n[nH]1 [Tozasertib] + COc1cc2c(Oc3ccc(NC(=O)C4(C(=O)Nc5ccc(F)cc5)CC4)cc3F)ccnc2cc1OCCCN1CCOCC1 [Foretinib] (partner 0.25 µM)
Procedure, shortened: as §1

Tozasertib + Bortezomib = compound: Cc1cc(Nc2cc(N3CCN(C)CC3)nc(Sc3ccc(NC(=O)C4CC4)cc3)n2)n[nH]1 [Tozasertib] + CC(C)C[C@H](NC(=O)[C@H](Cc1ccccc1)NC(=O)c1cnccn1)B(O)O [Bortezomib] (partner 0.002 µM)
Procedure, shortened: as §1

Tozasertib + Linsitinib = compound: Cc1cc(Nc2cc(N3CCN(C)CC3)nc(Sc3ccc(NC(=O)C4CC4)cc3)n2)n[nH]1 [Tozasertib] + C[C@]1(O)C[C@@H](c2nc(-c3ccc4ccc(-c5ccccc5)nc4c3)c3c(N)nccn32)C1 [Linsitinib] (partner 1 µM)
Procedure, shortened: as §1

Cell Line	relative viability (Tozasertib + Vorinostat; first compound 0.004 µM)	relative viability (Tozasertib + Vorinostat; first compound 0.04 µM)	relative viability (Tozasertib + Vorinostat; first compound 0.1265 µM)	relative viability (Tozasertib + OSI-027; first compound 0.004 µM)	relative viability (Tozasertib + OSI-027; first compound 0.01265 µM)	relative viability (Tozasertib + OSI-027; first compound 0.04 µM)	relative viability (Tozasertib + OSI-027; first compound 0.1265 µM)	relative viability (Tozasertib + Foretinib; first compound 0.004 µM)	relative viability (Tozasertib + Foretinib; first compound 0.01265 µM)	relative viability (Tozasertib + Foretinib; first compound 0.04 µM)	relative viability (Tozasertib + Foretinib; first compound 0.1265 µM)	relative viability (Tozasertib + Bortezomib; first compound 0.004 µM)	relative viability (Tozasertib + Bortezomib; first compound 0.01265 µM)	relative viability (Tozasertib + Bortezomib; first compound 0.04 µM)	relative viability (Tozasertib + Bortezomib; first compound 0.1265 µM)	relative viability (Tozasertib + Linsitinib; first compound 0.004 µM)	relative viability (Tozasertib + Linsitinib; first compound 0.01265 µM)	relative viability (Tozasertib + Linsitinib; first compound 0.04 µM)	relative viability (Tozasertib + Linsitinib; first compound 0.1265 µM)	relative viability (Tozasertib + Vorinostat; first compound 0.01265 µM)
COR-L 105	0.998	0.936	0.512	0.698	0.68	0.731	0.343	1.03	0.993	1	0.803	0.879	0.815	0.943	0.291	1.15	1.15	1.02	0.868	–
NCI-H2023	0.547	0.518	0.16	0.391	0.325	0.488	0.285	0.747	0.968	0.94	0.652	1.2	0.905	1.16	–	0.626	0.633	0.694	0.628	0.674
EPLC-272H	0.521	0.318	0.287	0.289	0.256	0.288	0.265	0.643	0.595	0.604	0.496	0.774	0.804	0.775	–	1.13	1.18	1.12	–	–
BEN	0.551	0.59	0.398	0.333	0.335	0.309	0.284	1.02	0.463	0.678	0.493	1.01	0.79	0.925	0.571	1.08	0.948	0.927	0.85	–
NCI-H1395	0.944	0.643	0.353	0.7	0.6	0.646	0.437	0.951	0.864	0.972	0.838	–	–	–	–	1.57	0.974	1.16	0.75	0.641
LCLC-103H	0.842	0.743	0.544	0.504	–	0.503	0.388	0.81	0.78	0.713	0.416	1.04	1.14	1.2	0.974	1.07	1.03	0.987	1.34	0.863
A-427	0.858	0.804	0.489	0.457	0.478	0.48	0.332	1.03	0.935	1	0.594	0.983	0.942	1.02	0.812	1.16	0.996	1.12	0.826	0.817
ChaGo-K-1	0.75	0.714	0.265	0.584	0.511	0.562	0.31	0.939	0.874	0.813	0.249	1.17	0.953	1.14	0.31	–	–	–	–	0.683
NCI-H1650	0.517	0.68	0.391	0.689	0.602	0.621	0.302	1.26	1.28	1.1	0.879	0.202	0.207	0.24	0.2	–	–	–	–	0.462
SK-LU-1	0.893	0.82	0.34	0.466	0.371	0.358	0.301	0.889	0.874	0.862	0.752	1.18	1.07	1.27	0.813	1.32	1.09	1.03	0.957	0.788
NCI-H522	0.917	0.759	0.782	0.773	0.838	0.783	0.628	–	–	–	–	–	–	–	–	–	–	–	–	1.14
LU99A	0.544	0.428	0.339	0.307	0.278	0.269	0.269	0.798	0.629	0.796	0.487	1.1	0.917	0.881	–	0.655	0.448	0.412	0.292	0.423
NCI-H2170	0.764	0.69	0.427	0.639	0.713	0.792	0.628	0.985	0.591	–	0.907	–	–	–	–	–	–	–	–	0.887
HCC-44	1.09	1.04	0.901	0.605	0.485	0.606	0.341	–	–	–	–	0.866	0.942	1.04	0.786	0.653	0.606	0.691	0.546	1
UMC-11	0.408	0.291	0.16	0.538	0.471	0.512	0.171	0.985	0.995	0.788	0.186	0.729	0.621	0.768	0.186	1.1	1.03	1.06	0.173	0.327
201T	0.939	0.968	0.946	0.76	0.781	0.839	0.621	1.09	1.04	1.28	1.09	1.1	1.06	1.07	–	1.02	0.955	1.08	1.04	0.902
NCI-H2009	0.772	0.735	0.578	0.635	0.614	0.668	0.51	1.21	1.19	1.33	0.994	1.12	0.938	1.08	0.811	1.19	1.22	1.15	1.19	0.696
NCI-H1734	0.711	0.649	0.245	0.597	0.596	0.557	0.435	0.888	–	0.824	0.414	0.833	0.998	1.07	0.464	0.894	0.938	0.938	0.616	0.741
HCC-15	0.86	0.923	–	0.745	0.64	0.665	0.419	1.1	0.99	1.1	0.764	0.999	–	–	0.851	0.893	0.778	0.882	0.734	0.735

Cell Line	relative viability (Tozasertib + Vorinostat; first compound 0.004 µM)	relative viability (Tozasertib + Vorinostat; first compound 0.04 µM)	relative viability (Tozasertib + Vorinostat; first compound 0.1265 µM)	relative viability (Tozasertib + OSI-027; first compound 0.004 µM)	relative viability (Tozasertib + OSI-027; first compound 0.01265 µM)	relative viability (Tozasertib + OSI-027; first compound 0.04 µM)	relative viability (Tozasertib + OSI-027; first compound 0.1265 µM)	relative viability (Tozasertib + Foretinib; first compound 0.004 µM)	relative viability (Tozasertib + Foretinib; first compound 0.01265 µM)	relative viability (Tozasertib + Foretinib; first compound 0.04 µM)	relative viability (Tozasertib + Foretinib; first compound 0.1265 µM)	relative viability (Tozasertib + Bortezomib; first compound 0.004 µM)	relative viability (Tozasertib + Bortezomib; first compound 0.01265 µM)	relative viability (Tozasertib + Bortezomib; first compound 0.04 µM)	relative viability (Tozasertib + Bortezomib; first compound 0.1265 µM)	relative viability (Tozasertib + Linsitinib; first compound 0.004 µM)	relative viability (Tozasertib + Linsitinib; first compound 0.01265 µM)	relative viability (Tozasertib + Linsitinib; first compound 0.04 µM)	relative viability (Tozasertib + Linsitinib; first compound 0.1265 µM)	relative viability (Tozasertib + Vorinostat; first compound 0.01265 µM)
NCI-H1437	0.851	0.769	0.481	1	0.794	0.874	0.606	1.22	1.25	1.2	1.19	0.757	0.509	0.55	0.31	1.09	0.971	1	0.779	0.792
NCI-H1563	–	–	–	–	0.763	0.713	0.701	0.892	0.919	0.918	0.92	0.873	0.817	0.956	0.861	1.26	1.2	1.14	1.12	–
NCI-H2085	0.797	–	0.603	0.769	0.726	0.828	0.695	1.03	0.767	1.03	0.703	1.01	1.07	1.11	0.792	0.966	0.865	0.949	0.649	0.714
NCI-H2126	0.797	0.915	0.781	0.777	0.728	0.773	0.657	1.19	1.24	1.29	1.12	1.12	1.1	1.22	1.14	0.623	0.728	0.825	0.716	0.808
SW 1573	0.624	0.509	0.192	0.619	0.526	0.512	0.204	0.839	0.905	1.02	0.8	1.15	1.07	1.22	0.744	0.76	0.901	–	0.517	0.599
EKVX	0.665	0.637	0.613	0.692	0.671	0.734	–	0.74	0.76	0.838	0.786	1.19	0.993	–	1.05	0.812	0.975	1.18	0.913	0.543
NCI-H1792	–	–	–	0.716	0.579	0.81	0.621	–	–	–	–	0.771	0.88	1.1	0.96	0.461	0.398	0.528	0.331	–
NCI-H1793	0.785	0.931	0.267	0.229	0.214	0.358	0.228	–	0.56	0.596	0.389	–	–	–	–	0.909	0.764	0.853	0.625	0.654
NCI-H1944	0.557	0.427	0.204	0.471	0.397	0.422	0.247	0.876	0.753	0.72	0.459	–	–	–	–	1.12	1.25	1.18	0.798	0.519
NCI-H838	0.716	0.502	0.235	0.485	0.354	0.426	0.257	0.977	0.922	1.05	0.921	0.757	0.801	1.32	0.281	1.07	0.972	1.15	0.861	0.713
LCLC-97TM1	0.69	0.644	0.153	0.571	0.507	0.526	0.371	1.03	0.895	0.95	0.695	0.933	0.271	0.624	0.106	–	0.204	0.155	0.163	0.639
EMC-BAC-2	0.438	0.242	0.15	0.381	0.389	0.381	0.262	1.1	0.935	1.02	0.642	1.09	1.05	0.96	–	0.867	0.79	–	0.611	0.233
LK-2	0.287	0.28	0.197	0.184	0.199	0.198	0.182	1.51	0.927	1.34	0.267	–	–	–	–	0.639	0.541	0.442	0.272	0.321
NCI-H358	0.626	0.361	0.15	0.779	0.803	0.982	0.125	0.736	0.617	0.545	0.106	–	–	–	–	0.787	0.69	0.651	0.194	0.648
A549	–	–	–	–	–	–	–	–	0.823	0.871	0.251	–	–	–	–	0.461	0.511	0.71	0.33	–
SK-MES-1	1	1.19	0.525	0.518	0.633	0.647	0.531	0.934	0.814	0.884	1.03	–	–	–	–	1.1	1.02	1.14	1.1	1.1
SW 900	0.579	–	0.266	0.767	0.54	0.75	0.28	0.914	0.825	1.08	0.638	–	–	–	–	–	–	–	–	0.436
NCI-H1703	–	–	–	–	–	–	–	0.36	0.409	0.337	0.327	0.41	0.29	0.401	0.222	1.26	0.833	0.808	0.626	–

Source: the supplement of paper PMC10307832
